Data published in article PMC5526870, “Fragment optimization for GPCRs by molecular dynamics free energy calculations: Probing druggable subpockets of the A2A adenosine receptor binding site” (Scientific Reports, 2017).
Where “and” joins values, the source holds several entries; their conditions need not be identical. Equal values may be shown once. Read-outs that look alike come from different tables or passages of the source. Each block holds one molecule with its values, some of them ahead of it.

Experiments:
human A2AAR [1] = biological target: T1, human A2AAR (Homo sapiens, UniProt P29274); conditions: 95% confidence interval in brackets, cited from earlier work
T1 construct: expressed in transfected cells; host or cells: CHO cells

human A2AAR [2] = biological target: T1, human A2AAR; test: Radioligand binding assay, antagonist [3H]ZM241385 (1.0 nM), membranes of CHO or HEK293 cells, compounds 25-36; conditions: for inhibition at 300 µM: read-out: % inhibition at 300 µM A2A (displacement of radioligand binding); for inhibition at 300 µM / Ki: [3H]ZM241385, mean ± standard error, n=3; for Ki: read-out: Ki A2A; for fold increase of affinity compared to compound 32: experimentally determined, A2AAR
Protocol: (§1) Radioligand binding assays for compounds 25–36 were performed as previously described[61] using membrane preparations from Chinese hamster ovary (CHO) or human embryonic kidney (HEK)293 cells stably expressing the human A1, A2A or A3AR. The following radioligands: antagonist [^3H]DPCPX (0.5 nM); antagonist [^3H]ZM241385 (1.0 nM); and agonist [^125I]AB-MECA (0.2 nM) were used for A1, A2A, and A3ARs, respectively. Binding parameters were calculated using Prism 6 software (GraphPAD, San Diego, CA, USA). IC50 values obtained from competition curves were converted to Ki values using the Cheng-Prusoff equation. Data were expressed as mean ± standard error. The radioligand binding assays for compounds 18, 20, 21, and 23 were performed as previously described. Each Ki value was determined from at least three independent experiments.
(§2) Supplementary Table S2. Experimental data for compounds 25-36. Radioligand binding
(§3) assays were performed using membranes of mammalian cells overexpressing one AR subtype.
(§4) aData are expressed as mean ± standard error resulting from three independent experiments.

human A1AR = biological target: T2, human A1AR (Homo sapiens, UniProt P30542); test: Radioligand binding assay, antagonist [3H]DPCPX (0.5 nM), membranes of CHO or HEK293 cells; conditions: for inhibition at 300 µM: read-out: % inhibition at 300 µM A1
T2 construct: expressed in transfected cells; host or cells: CHO or HEK293 cells (membrane preparations)
T2 sequence (P30542 1-326): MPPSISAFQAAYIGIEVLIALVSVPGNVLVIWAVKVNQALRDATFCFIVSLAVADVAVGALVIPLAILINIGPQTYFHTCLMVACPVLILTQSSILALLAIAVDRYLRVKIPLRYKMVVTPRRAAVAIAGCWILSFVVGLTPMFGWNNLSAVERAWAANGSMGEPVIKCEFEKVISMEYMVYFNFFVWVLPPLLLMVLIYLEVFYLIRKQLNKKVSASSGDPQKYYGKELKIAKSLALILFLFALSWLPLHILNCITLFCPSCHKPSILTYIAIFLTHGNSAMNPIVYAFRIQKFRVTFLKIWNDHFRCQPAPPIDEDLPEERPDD
Protocol: Binding parameters were calculated using Prism 6 software (GraphPAD, San Diego, CA, USA). IC50 values obtained from competition curves were converted to Ki values using the Cheng-Prusoff equation. Data were expressed as mean ± standard error. […] Each Ki value was determined from at least three independent experiments.
Supplementary Table S2. […] Radioligand binding
as §3

human A3AR = biological target: T3, human A3AR (Homo sapiens, UniProt P0DMS8); test: Radioligand binding assay, agonist [125I]AB-MECA (0.2 nM), membranes of CHO or HEK293 cells; conditions: for Ki: mean ± standard error, n=3, read-out: Ki A3; for inhibition at 300 µM: read-out: % inhibition at 300 µM A3, 300 µM, mean ± standard error, n=3
T3 construct: expressed in transfected cells; host or cells: CHO or HEK293 cells (membrane preparations)
T3 sequence (P0DMS8 1-318): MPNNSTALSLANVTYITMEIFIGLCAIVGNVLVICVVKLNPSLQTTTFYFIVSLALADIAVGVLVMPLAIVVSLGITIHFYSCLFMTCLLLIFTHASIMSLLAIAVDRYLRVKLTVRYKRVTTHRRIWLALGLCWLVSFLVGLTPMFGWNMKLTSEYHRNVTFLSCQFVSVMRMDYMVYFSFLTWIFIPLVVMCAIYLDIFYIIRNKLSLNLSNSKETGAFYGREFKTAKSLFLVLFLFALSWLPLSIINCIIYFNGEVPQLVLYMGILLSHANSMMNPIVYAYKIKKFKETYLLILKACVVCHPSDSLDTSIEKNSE
Protocol: as §1, §2, §3, §4

human A2AAR [3] = biological target: T1, human A2AAR; test: Functional assay: inhibition of NECA-induced cAMP production (GloSensor) in CHO cells; type: cell-based; conditions: against 1 µM NECA, CHO cells expressing human A2AAR
human A2AAR [4] = biological target: T1, human A2AAR; test: Radioligand binding assay at the A2AAR for adenine derivatives 1-23 (displacement of [3H]NECA, CHO cells)
Protocol: as §1
Supplementary Table S1. Binding data for compounds 1-23. […]
aKi value from Lambertucci et al.1 bKi value from Volpini et al.2 cDisplacement of specific [3H]NECA binding at human A2AAR expressed in CHO cells measured in this work.
Data is expressed as geometric means with 95% confidence limits (n=3-6). […]

[5] = [3H]DPCPX, mean ± standard error, n=3
[6] = displacement of specific [3H]NECA binding at human A2AAR expressed in CHO cells, measured in this work
[7] = [3H]DPCPX, mean ± standard error, n=3, read-out: Ki A1

T1 sequence (P29274 whole entry): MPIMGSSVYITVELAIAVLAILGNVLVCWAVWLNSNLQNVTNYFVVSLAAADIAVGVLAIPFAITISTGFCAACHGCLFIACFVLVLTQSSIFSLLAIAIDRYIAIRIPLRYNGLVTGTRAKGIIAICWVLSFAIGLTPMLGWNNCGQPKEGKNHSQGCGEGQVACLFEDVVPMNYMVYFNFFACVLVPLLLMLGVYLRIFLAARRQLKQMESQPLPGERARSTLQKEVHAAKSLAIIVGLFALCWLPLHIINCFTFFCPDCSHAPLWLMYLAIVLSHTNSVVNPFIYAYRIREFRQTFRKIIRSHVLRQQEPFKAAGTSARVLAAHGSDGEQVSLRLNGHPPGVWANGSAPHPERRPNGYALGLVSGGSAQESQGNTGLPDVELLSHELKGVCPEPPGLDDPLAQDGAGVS

SMILES: CCCn1cnc2c(N)ncnc21 [Compound 13]
Ki (human A2AAR [1]; ref Lambertucci et al. [22]): 9.6 µM

inhibition at 300 µM (human A2AAR [2]): 17% | inhibition at 300 µM (human A1AR; [5]): 22 ± 6% | Ki (human A3AR): 153 ± 31 µM
SMILES: Nc1cccn2ncnc12 [Compound 28, [1,2,4]triazolo[1,5-a]pyridin-8-amine]

SMILES: Cn1cnc2ncnc(N)c21 [Compound 1]
Ki (human A2AAR [1]; ref Lambertucci et al. [22]): > 100 µM

SMILES: Nc1ncnc2c1ncn2CCO [Compound 10]
Ki (human A2AAR [1]; ref Lambertucci et al. [22]): 11 µM

SMILES: CCOc1nc2c(N)ncnc2n1CC [Compound 22]
Ki (human A2AAR [1]; ref Volpini et al. [23]): 0.046 µM | inhibition of A2AAR mediated cAMP production (human A2AAR [3]): close to completely inhibit the agonist effect of 1 µM NECA

SMILES: CCn1c(O)nc2c(N)ncnc21 [Compound 20]
Ki (human A2AAR [4]; [6]): 1.14 ± 0.29 µM

SMILES: CCn1c(C)nc2c(N)ncnc21 [Compound 18]
fold increase of binding affinity compared to compound 9 (human A2AAR [4]; C8-methyl substituent): 10 fold | Ki (human A2AAR [4]; [6]): 0.218 ± 0.061 µM

SMILES: CC(C)Cn1c(Br)nc2c(N)ncnc21 [Compound 8]
Ki (human A2AAR [1]; ref Lambertucci et al. [22]): 6 µM

SMILES: CCn1c(OC(C)C)nc2c(N)ncnc21 [Compound 23]
Ki (human A2AAR [4]; compound retested in a radioligand binding assay at the A2AAR, this work): 0.095 µM | fold loss of binding affinity relative to compound 21 (human A2AAR [4]; from published affinity of 23): > 1000 fold | Ki (human A2AAR [1]; ref Volpini et al. [23]): > 100 µM | inhibition of A2AAR mediated cAMP production (human A2AAR [3]): close to completely inhibit the agonist effect of 1 µM NECA

Ki (human A2AAR [2]): 11.6 ± 1.2 µM | fold increase of affinity compared to compound 32 (human A2AAR [2]): 7 fold | Ki (human A1AR; [7]): 8.4 ± 0.9 µM | Ki (human A3AR): 1.1 ± 0.2 µM
SMILES: CC(=O)Nc1nc2cc(C)ccc2s1 [Compound 34]

Ki (human A2AAR [2]): 223 µM | Ki (human A1AR): 50.1 ± 22.6 µM | Ki (human A3AR): 102 ± 32 µM
SMILES: CC(C)c1nc2c(N)cccn2n1 [Compound 31]

inhibition at 300 µM (human A2AAR [2]): 34% | inhibition at 300 µM (human A1AR; [5]): 27 ± 4% | inhibition at 300 µM (human A3AR): 39 ± 2%
SMILES: Nc1ncnc2ncnn12 [Compound 25, [1,2,4]triazolo[1,5-a][1,3,5]triazin-7-amine]

Ki (human A2AAR [2]): 79.1 µM and 79 µM | Ki (human A1AR; [7]): 11.2 ± 2.4 µM | Ki (human A3AR): 0.81 ± 0.17 µM
SMILES: CC(=O)Nc1nc2ccccc2s1 [Compound 32, N-(benzo[d]thiazol-2-yl)acetamide]

SMILES: Nc1ncnc2c1nc(Br)n2CCO [Compound 6]
Ki (human A2AAR [1]; ref Lambertucci et al. [22]): 0.62 µM

SMILES: Nc1ncnc2c1ncn2CCCO [Compound 12]
Ki (human A2AAR [1]; ref Lambertucci et al. [22]): 3.9 µM

SMILES: C=CCCn1cnc2c(N)ncnc21 [Compound 17]
Ki (human A2AAR [1]; ref Lambertucci et al. [22]): 8.5 µM

experimental improvement in binding free energy, compound 3 versus compound 2 (human A2AAR [4]; C8-bromine addition): 2.4 kcal/mol | fold increase in affinity compared to compound 2 (human A2AAR [4]; C8-bromine versus unsubstituted compound 2): 58 fold | experimental improvement of binding affinity, compound 3 versus compound 4 (human A2AAR [4]; addition of N9-methyl group): 2.0 kcal/mol
SMILES: Cn1c(Br)nc2c(N)ncnc21 [Compound 3]

SMILES: Nc1ncnc2c1ncn2C1CCCC1 [Compound 15]
Ki (human A2AAR [1]; ref Lambertucci et al. [22]): 1.8 µM

SMILES: CCCn1c(Br)nc2c(N)ncnc21 [Compound 7]
Ki (human A2AAR [1]; ref Lambertucci et al. [22]): 0.3 µM

SMILES: CCn1cnc2c(N)ncnc21 [Compound 9]
Ki (human A2AAR [1]; ref Lambertucci et al. [22]): 2.2 µM

inhibition at 300 µM (human A2AAR [2]): 31% | inhibition at 300 µM (human A1AR; [5]): 38 ± 6% | inhibition at 300 µM (human A3AR): 44 ± 4%
SMILES: Cc1nc2c(N)cccn2n1 [Compound 29]

Ki (human A2AAR [2]): 48.6 ± 2.6 µM | fold increase of affinity compared to compound 32 (human A2AAR [2]): two-fold increase of affinity | Ki (human A1AR; [7]): 17.8 ± 1.7 µM | Ki (human A3AR): 2.9 ± 0.4 µM
SMILES: CC(=O)Nc1nc2ccc(C)cc2s1 [Compound 35]

SMILES: CCn1c(Br)nc2c(N)ncnc21 [Compound 5]
Ki (human A2AAR [1]; ref Lambertucci et al. [22]): 0.052 µM | inhibition of A2AAR mediated cAMP production (human A2AAR [3]): close to completely inhibit the agonist effect of 1 µM NECA

Ki (human A2AAR [2]): 10.7 ± 2.3 µM | fold increase of affinity compared to compound 32 (human A2AAR [2]): 7 fold | Ki (human A1AR; [7]): 17 ± 1.2 µM | Ki (human A3AR): 2.3 ± 0.5 µM
SMILES: CC(=O)Nc1nc2c(C)cccc2s1 [Compound 33]

SMILES: CC(C)Cn1cnc2c(N)ncnc21 [Compound 11]
Ki (human A2AAR [1]; ref Lambertucci et al. [22]): > 100 µM

inhibition at 300 µM (human A2AAR [2]): 49% | Ki (human A1AR): 97.2 ± 22.5 µM | Ki (human A3AR): 110 ± 17 µM
SMILES: CCc1nc2c(N)cccn2n1 [Compound 30]

SMILES: Nc1ncnc2c1nc(Br)n2C1CCCC1 [Compound 14]
Ki (human A2AAR [1]; ref Lambertucci et al. [22]): 1.9 µM

Ki (human A2AAR [2]): 78.5 µM | inhibition at 300 µM (human A1AR; [5]): 44 ± 4% | inhibition at 300 µM (human A3AR): 50 ± 4%
SMILES: Cc1nc2ncnc(N)n2n1 [Compound 26]

Ki (human A2AAR [2]): 20 µM | Ki (human A1AR): 97.3 ± 3.5 µM | Ki (human A3AR): 119 ± 42 µM
SMILES: CSc1nc2ncnc(N)n2n1 [Compound 27]

Ki (human A2AAR [2]): 1.8 ± 0.05 µM | experimental increase of affinity compared to compound 32, as free energy (human A2AAR [2]; corresponding to the 44-fold increase): 2.3 kcal/mol | fold increase of affinity compared to compound 32 (human A2AAR [2]): 44 fold | Ki (human A1AR; [7]): 7.8 ± 0.5 µM | Ki (human A3AR): 1 ± 0.2 µM
SMILES: COc1cccc2sc(NC(C)=O)nc12 [Compound 36]
